Results: ChEMBL document CHEMBL5696441 (Nat Chem Biol, 2011)
pIC50: −log10 of the molar value.

Legend:
Homo sapiens = organism: Homo sapiens; experiment: Inhibition of human CDK1/CycA2 assessed as residual activity at 1 uM using RBER-CHKtide as substrate in presence of 33P-ATP by ProQinase assay relative to control
[1] = system: Hepatocyte growth factor receptor (Homo sapiens), P08581 [Y1235D]; experiment: Inhibition of MET Y1235D mutant (unknown origin) assessed as remaining activity at 1 uM by Kinome scan method relative to control
[2] = molecular target: Receptor tyrosine-protein kinase erbB-4 (Homo sapiens) (UniProt Q15303); experiment: Inhibition of human ERBB4 assessed as residual activity at 1 uM using polyEy as substrate in presence of 33P-ATP by ProQinase assay relative to control
[3] = molecular target: Fibroblast growth factor receptor 3 (Homo sapiens) (UniProt P22607); experiment: Inhibition of human FGFR3 assessed as residual activity at 1 uM using PolyEY as substrate in presence of 33P-ATP by ProQinase assay relative to control
[4] = molecular target: Serine/threonine-protein kinase D2 (Homo sapiens) (UniProt Q9BZL6); experiment: Inhibition of PRKD2 (unknown origin) assessed as remaining activity at 1 uM by Kinome scan method relative to control
[5] = Anti-inflammatory activity against human derived high respond PBMC cells assessed as inhibition in stimulated INFgamma cytokine release incubated for 2 hrs in the presence of LPS/SEB/aCD28 by Luminex based sandwich immunoassay; format: functional, cell-based
[6] = molecular target: Calcium/calmodulin-dependent protein kinase type 1G (Homo sapiens) (UniProt Q96NX5); experiment: Inhibition of CAMK1G (unknown origin) assessed as remaining activity at 1 uM by Kinome scan method relative to control
[7] = molecular target: T1, Serine/threonine-protein kinase Nek1 (Homo sapiens) (UniProt Q96PY6); experiment: Inhibition of human NEK1 assessed as residual activity at 1 uM using RBER-CHKtide as substrate in presence of 33P-ATP by ProQinase assay relative to control
T1 sequence (whole entry): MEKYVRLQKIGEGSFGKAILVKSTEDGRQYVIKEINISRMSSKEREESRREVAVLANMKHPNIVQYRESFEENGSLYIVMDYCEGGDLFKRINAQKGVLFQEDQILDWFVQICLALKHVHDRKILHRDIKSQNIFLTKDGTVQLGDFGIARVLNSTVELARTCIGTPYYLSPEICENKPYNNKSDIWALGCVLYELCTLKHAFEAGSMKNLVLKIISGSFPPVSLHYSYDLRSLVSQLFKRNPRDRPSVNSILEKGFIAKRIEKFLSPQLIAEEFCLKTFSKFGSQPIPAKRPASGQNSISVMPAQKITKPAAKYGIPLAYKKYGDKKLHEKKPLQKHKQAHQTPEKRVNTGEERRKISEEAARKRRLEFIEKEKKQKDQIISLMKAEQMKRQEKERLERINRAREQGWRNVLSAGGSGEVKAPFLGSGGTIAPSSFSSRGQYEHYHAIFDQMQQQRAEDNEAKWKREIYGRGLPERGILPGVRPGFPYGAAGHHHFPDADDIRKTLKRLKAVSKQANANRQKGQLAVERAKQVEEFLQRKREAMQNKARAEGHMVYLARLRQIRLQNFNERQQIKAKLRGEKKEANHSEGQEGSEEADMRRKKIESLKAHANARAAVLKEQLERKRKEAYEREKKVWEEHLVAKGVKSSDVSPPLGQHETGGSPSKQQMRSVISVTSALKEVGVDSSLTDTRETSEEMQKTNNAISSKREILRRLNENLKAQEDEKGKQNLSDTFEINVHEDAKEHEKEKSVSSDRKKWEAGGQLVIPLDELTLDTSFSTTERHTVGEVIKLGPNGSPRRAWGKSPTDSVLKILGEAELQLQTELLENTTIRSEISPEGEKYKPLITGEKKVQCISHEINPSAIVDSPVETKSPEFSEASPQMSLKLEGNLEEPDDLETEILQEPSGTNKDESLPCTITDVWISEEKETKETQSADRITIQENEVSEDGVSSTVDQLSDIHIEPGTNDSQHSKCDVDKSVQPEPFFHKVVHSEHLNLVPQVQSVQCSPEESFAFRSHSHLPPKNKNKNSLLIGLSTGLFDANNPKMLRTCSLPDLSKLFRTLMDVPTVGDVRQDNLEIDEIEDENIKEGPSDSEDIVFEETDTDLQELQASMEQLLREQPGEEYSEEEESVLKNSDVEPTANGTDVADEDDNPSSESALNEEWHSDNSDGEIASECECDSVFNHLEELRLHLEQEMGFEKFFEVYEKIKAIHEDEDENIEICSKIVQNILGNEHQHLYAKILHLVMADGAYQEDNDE

[8] = molecular target: Casein kinase II subunit alpha (Homo sapiens) (UniProt P68400); experiment: Inhibition of human CK2alpha1 assessed as residual activity at 1 uM using casein as substrate in presence of 33P-ATP by ProQinase assay relative to control
[9] = Anti-inflammatory activity against human derived medium respond PBMC cells assessed as inhibition in stimulated INFgamma cytokine release incubated for 2 hrs in the presence of LPS/SEB/aCD28 by Luminex based sandwich immunoassay; format: functional, cell-based
[10] = molecular target: Serine/threonine-protein kinase PLK3 (Homo sapiens) (UniProt Q9H4B4); experiment: Inhibition of human PLK3 assessed as residual activity at 1 uM using casein as substrate in presence of 33P-ATP by ProQinase assay relative to control
[11] = molecular target: T2, Phosphorylase b kinase gamma catalytic chain, liver/testis isoform (Homo sapiens) (UniProt P15735); experiment: Inhibition of human PHKG2 assessed as residual activity at 1 uM using RBER-CHKtide as substrate in presence of 33P-ATP by ProQinase assay relative to control
T2 sequence (whole entry): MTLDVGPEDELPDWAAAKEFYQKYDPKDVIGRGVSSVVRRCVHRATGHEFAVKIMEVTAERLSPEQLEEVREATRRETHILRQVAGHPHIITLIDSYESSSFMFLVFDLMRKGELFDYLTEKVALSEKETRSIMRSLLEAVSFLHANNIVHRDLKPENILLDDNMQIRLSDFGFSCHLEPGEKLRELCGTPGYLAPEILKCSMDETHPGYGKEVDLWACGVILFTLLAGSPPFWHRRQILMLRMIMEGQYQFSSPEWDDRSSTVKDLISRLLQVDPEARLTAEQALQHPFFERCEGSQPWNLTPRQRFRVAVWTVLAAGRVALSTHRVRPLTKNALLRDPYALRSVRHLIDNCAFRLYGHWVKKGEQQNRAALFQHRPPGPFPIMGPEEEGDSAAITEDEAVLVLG

[12] = molecular target: Serine/threonine-protein kinase 4 (Homo sapiens) (UniProt Q13043); experiment: Inhibition of MST1 (unknown origin) assessed as remaining activity at 1 uM by Kinome scan method relative to control
[13] = system: RAF proto-oncogene serine/threonine-protein kinase (Homo sapiens), P04049 [Y340D,Y341D]; experiment: Inhibition of human RAF1 Y340D/Y341D double mutant assessed as residual activity at 1 uM using MEK1-K97M as substrate in presence of 33P-ATP by ProQinase assay relative to control

Sequence of Serine/threonine-protein kinase D2 (Homo sapiens) (Q9BZL6 whole entry): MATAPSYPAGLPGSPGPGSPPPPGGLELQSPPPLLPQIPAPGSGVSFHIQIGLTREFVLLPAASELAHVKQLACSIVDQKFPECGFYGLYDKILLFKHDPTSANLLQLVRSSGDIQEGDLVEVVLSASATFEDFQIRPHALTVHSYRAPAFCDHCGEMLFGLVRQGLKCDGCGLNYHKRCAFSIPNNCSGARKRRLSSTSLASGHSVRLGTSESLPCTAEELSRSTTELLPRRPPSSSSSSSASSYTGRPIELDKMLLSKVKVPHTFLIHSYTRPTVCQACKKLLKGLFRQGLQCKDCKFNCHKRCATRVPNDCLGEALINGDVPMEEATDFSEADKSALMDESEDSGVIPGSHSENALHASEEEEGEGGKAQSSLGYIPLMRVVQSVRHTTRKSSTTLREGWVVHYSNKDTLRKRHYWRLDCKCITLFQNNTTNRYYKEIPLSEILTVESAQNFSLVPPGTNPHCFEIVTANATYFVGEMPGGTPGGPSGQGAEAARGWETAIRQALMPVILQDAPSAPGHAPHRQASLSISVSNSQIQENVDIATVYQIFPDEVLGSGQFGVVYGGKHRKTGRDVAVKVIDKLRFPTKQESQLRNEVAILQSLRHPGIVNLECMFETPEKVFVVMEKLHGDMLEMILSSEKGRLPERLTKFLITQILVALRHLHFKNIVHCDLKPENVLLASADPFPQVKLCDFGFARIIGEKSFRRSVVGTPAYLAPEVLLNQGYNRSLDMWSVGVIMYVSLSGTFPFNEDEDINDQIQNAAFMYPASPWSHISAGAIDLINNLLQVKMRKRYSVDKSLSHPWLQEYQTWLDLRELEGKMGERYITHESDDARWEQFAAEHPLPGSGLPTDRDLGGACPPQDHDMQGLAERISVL
Sequence of Calcium/calmodulin-dependent protein kinase type 1G (Homo sapiens) (Q96NX5 whole entry): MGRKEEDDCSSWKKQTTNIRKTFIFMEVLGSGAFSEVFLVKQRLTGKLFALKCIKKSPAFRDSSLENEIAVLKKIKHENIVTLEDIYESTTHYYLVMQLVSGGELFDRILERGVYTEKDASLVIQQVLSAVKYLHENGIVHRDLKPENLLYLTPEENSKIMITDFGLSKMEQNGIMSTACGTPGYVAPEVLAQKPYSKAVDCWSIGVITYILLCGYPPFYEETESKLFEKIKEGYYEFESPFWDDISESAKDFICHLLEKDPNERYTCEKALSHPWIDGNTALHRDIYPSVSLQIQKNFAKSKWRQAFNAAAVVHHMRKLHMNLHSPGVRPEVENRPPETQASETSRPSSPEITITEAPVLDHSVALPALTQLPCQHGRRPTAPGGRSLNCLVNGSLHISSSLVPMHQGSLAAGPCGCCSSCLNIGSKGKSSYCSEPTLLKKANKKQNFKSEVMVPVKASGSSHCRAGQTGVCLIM
Sequence of Fibroblast growth factor receptor 3 (Homo sapiens) (P22607 23-806 limits assumed): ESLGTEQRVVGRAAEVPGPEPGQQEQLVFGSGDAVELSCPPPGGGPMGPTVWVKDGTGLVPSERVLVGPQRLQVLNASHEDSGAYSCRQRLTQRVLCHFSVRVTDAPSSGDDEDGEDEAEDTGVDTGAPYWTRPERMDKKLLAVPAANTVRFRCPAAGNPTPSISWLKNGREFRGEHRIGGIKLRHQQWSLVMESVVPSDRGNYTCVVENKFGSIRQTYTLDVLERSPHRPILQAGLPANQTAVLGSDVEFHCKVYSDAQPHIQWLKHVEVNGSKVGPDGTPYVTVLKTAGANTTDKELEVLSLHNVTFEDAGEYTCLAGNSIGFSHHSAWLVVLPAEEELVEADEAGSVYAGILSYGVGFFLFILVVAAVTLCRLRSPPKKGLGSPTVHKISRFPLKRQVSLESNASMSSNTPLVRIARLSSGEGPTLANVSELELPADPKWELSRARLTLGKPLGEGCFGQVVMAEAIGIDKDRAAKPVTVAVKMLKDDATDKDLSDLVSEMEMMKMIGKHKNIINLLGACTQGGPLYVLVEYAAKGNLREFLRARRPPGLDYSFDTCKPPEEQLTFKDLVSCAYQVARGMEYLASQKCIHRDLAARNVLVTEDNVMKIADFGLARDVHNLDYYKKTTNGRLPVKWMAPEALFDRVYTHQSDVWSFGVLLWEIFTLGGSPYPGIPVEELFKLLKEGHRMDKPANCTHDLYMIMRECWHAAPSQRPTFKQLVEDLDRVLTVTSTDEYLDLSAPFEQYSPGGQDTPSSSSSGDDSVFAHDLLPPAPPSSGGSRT
Sequence of Serine/threonine-protein kinase 4 (Homo sapiens) (Q13043 whole entry): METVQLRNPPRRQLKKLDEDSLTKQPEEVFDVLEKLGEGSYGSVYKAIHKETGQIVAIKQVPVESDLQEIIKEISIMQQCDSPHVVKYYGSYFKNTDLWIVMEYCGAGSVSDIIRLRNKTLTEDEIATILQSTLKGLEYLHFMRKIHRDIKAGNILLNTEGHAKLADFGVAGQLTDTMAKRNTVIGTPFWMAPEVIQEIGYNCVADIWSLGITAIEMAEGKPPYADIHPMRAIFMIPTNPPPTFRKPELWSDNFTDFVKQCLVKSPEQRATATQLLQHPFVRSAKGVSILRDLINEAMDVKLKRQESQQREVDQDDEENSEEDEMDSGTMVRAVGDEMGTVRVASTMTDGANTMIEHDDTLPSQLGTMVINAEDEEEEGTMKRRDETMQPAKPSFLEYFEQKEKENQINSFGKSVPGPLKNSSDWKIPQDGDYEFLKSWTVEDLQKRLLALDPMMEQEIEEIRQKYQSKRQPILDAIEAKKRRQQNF
Sequence of Serine/threonine-protein kinase PLK3 (Homo sapiens) (Q9H4B4 whole entry, looked up, canonical isoform): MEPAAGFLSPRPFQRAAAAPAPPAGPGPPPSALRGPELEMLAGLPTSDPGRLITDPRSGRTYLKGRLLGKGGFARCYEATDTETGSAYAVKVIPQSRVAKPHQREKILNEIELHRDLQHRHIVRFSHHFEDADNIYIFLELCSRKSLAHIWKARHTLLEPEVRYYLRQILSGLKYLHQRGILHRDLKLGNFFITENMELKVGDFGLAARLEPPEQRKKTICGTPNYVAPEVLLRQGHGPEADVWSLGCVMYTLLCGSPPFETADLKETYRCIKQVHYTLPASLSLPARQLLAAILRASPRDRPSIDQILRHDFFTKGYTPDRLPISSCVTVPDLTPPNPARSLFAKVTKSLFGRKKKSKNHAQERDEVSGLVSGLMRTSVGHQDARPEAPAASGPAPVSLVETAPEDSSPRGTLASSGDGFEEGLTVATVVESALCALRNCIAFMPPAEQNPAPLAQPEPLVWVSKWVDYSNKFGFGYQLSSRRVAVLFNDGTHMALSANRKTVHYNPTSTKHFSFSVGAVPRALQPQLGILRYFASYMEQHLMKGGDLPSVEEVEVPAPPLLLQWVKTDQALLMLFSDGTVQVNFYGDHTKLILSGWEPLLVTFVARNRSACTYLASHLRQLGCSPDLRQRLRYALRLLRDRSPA
Sequence of Casein kinase II subunit alpha (Homo sapiens) (P68400 whole entry, looked up): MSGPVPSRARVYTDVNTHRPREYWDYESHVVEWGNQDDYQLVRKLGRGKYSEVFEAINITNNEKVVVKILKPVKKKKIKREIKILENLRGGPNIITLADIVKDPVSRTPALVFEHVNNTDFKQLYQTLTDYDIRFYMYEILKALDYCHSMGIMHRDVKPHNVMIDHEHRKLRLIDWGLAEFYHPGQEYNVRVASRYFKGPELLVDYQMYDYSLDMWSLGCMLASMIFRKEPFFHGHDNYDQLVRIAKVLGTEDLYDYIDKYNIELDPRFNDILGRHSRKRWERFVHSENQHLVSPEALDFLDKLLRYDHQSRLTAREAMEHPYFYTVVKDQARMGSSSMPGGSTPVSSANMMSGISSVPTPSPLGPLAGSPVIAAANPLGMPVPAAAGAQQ
Sequence of Receptor tyrosine-protein kinase erbB-4 (Homo sapiens) (Q15303 whole entry): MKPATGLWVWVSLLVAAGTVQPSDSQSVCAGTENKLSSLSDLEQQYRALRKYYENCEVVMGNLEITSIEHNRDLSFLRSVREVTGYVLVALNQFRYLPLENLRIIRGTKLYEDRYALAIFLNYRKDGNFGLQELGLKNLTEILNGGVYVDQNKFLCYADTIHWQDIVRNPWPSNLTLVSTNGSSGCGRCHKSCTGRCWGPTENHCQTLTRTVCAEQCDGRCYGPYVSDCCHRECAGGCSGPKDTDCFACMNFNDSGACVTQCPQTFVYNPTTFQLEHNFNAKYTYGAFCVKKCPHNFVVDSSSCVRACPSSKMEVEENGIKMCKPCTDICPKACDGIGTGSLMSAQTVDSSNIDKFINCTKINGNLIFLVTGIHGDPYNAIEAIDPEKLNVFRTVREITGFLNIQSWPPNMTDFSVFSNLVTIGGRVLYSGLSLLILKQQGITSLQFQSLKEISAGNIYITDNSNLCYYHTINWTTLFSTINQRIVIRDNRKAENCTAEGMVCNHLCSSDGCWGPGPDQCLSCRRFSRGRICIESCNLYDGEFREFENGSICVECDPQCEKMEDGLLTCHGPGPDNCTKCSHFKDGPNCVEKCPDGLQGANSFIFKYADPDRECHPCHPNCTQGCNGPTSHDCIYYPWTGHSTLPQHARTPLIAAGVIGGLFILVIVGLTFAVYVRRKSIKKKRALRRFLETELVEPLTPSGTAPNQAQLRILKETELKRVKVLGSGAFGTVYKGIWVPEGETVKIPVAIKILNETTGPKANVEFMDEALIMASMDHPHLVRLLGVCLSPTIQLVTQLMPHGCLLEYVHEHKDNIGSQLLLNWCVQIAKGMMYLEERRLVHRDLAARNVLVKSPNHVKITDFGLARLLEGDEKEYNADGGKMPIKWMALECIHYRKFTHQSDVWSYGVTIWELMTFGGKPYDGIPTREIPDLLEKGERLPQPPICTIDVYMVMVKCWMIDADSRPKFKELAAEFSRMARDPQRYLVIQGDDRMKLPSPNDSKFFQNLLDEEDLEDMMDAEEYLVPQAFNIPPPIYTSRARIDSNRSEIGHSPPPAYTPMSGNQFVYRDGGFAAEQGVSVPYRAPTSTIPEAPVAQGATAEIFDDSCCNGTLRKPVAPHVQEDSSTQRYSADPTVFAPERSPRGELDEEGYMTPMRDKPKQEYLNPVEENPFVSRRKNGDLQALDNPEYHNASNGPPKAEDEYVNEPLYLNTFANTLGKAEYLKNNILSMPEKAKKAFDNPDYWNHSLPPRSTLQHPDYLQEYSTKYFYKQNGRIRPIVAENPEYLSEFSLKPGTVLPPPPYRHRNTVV

O=C1c2ccc(Nc3ccc(F)cc3F)cc2CCc2ccc(OC[C@H](O)CO)cc21 [Skepinone-L]
Activity (Homo sapiens): 98% | Activity [1]: 97% | Activity [2]: 106% | Activity [3]: 102% | Activity [4]: 100% | pIC50 [5]: 7.22 | Activity [6]: 96% | Activity [7]: 83% | Activity [8]: 95% | pIC50 [9]: 6.52 | Activity [10]: 99% | Activity [11]: 73% | Activity [12]: 100% | Activity [13]: 91%
